Our source for the Bliss excess values is the supplement of paper PMC11061612.

Molecules are shown by their SMILES.

Common to all, as to assay: Bliss excess, mean over the matrix (fraction); higher = more synergy
The subject of assay [1] is DK-MG (Glioblastoma). In outline: (§1)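 Bliss excess equals the observed combination effect minus the expected value EA + EB − EA·EB, where EA and EB are the effects of each agent alone. Combination Emax is the second-highest inhibition within the matrix. Inhibition was scaled from CellTiter-Glo 2.0 luminescence, with 0 set by vehicle wells and 1 by blank wells, after 72 hours of two-drug dosing of cells plated in 1536-well plates.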

Assay [2] deals with SBC-5 (Small Cell Lung Carcinoma). In outline:
as §1

Assay [3] has as its system MDA-MB-175-VII (Breast Carcinoma). The gist of the method: as §1
Assay [4] relates to OCI-M1 (Acute Myeloid Leukemia). The gist of the method:
as §1

For assay [5], the system named is A375 (Melanoma). The gist of the method:
as §1

Assay [6] concerns IGROV-1 (Ovarian Carcinoma). The gist of the method:
as §1

The subject of assay [7] is HT-144 (Melanoma). The gist of the method: as §1
The subject of assay [8] is KNS-62 (Squamous Cell Lung Carcinoma). In outline:
as §1

Assay [9] relates to SK-N-DZ (Neuroblastoma). In outline:
as §1

For assay [10], the system named is MG-63 (Osteosarcoma). The gist of the method: as §1
The subject of assay [11] is COR-L105 (Lung Adenocarcinoma). In outline: as §1
The subject of assay [12] is BT-474 (Breast Carcinoma). The gist of the method:
as §1

Assay [13] has as its system C32 (Melanoma). The gist of the method:
as §1

The subject of assay [14] is CAL-85-1 (Breast Carcinoma). The gist of the method:
as §1

In assay [15] the test system is RS4-11 (B-Lymphoblastic Leukemia). The gist of the method: as §1
Assay [16] has as its system TK (B-Cell Non-Hodgkin's Lymphoma). The gist of the method: as §1
The test system of assay [17] is NCI-H2023 (Non-Small Cell Lung Carcinoma). In outline:
as §1

Assay [18] concerns NCI-H2170 (Squamous Cell Lung Carcinoma). In outline:
as §1

The test system of assay [19] is L-363 (Plasma Cell Myeloma). In outline: as §1
In assay [20] the test system is NCI-H2452 (Mesothelioma). In outline: as §1

Regarding `Cc1c2c(nn1C)CSCc1cc(n(C)n1)CSc1cc(c3ccccc3c1)OCCCc1c(C(=O)O)n(C)c3c-2c(Cl)ccc13` [AZD5991] + C1CN(CCC1(C(=O)N[C@@H](CCO)C2=CC=C(C=C2)Cl)N)C3=NC=NC4=C3C=CN4 [Capivasertib] (first compound max 1 µM, 7x7, partner max 3 µM), the Bliss excess in assay [1] was 0.047; in assay [2], -0.0069; in [3], 0.0261; in [4] it was -0.0105; in [5] it was -0.0192; in assay [6] it was 0.0239. The Bliss excess in [7] was 0.0582; in [8], 0.0047; in assay [9], -0.001; in assay [10] it was -0.0384; in [11] it was -0.0019; in [12], 0.0359. Also, the Bliss excess in assay [13] is 0.0009; in assay [14] it was -0.0289; in assay [15], -0.0148; in assay [16] it was -0.0039; in assay [17], -0.0028; in assay [18], -0.0324. Besides, the values for the Bliss excess in assay [19] and in assay [20] were 0.0476 and -0.0146, respectively.

On to `Cc1c2c(nn1C)CSCc1cc(n(C)n1)CSc1cc(c3ccccc3c1)OCCCc1c(C(=O)O)n(C)c3c-2c(Cl)ccc13` [AZD5991] + C=CCn1c(=O)c2cnc(Nc3ccc(N4CCN(C)CC4)cc3)nc2n1-c1cccc(C(C)(C)O)n1 [AZD1775] (first compound max 1 µM, partner max 1 µM), for which the Bliss excess in assay [1] was 0.0168; in [2], 0.0501; in assay [3] it was -0.0223; in assay [4] it was 0.0066; in assay [5] it was 0.0237; in [6] it was 0.0847. Further, the Bliss excess in [7] is 0.0284; in assay [8], 0.0251; in assay [9], 0.0464; in [10], -0.0317; in [11], -0.0025; in assay [12] it was -0.0298. Moreover, the Bliss excess in assay [13] is 0.0452; in [14], -0.0194; in assay [15], 0.0066; in assay [16], -0.0721; in [17], 0.0092; in [18], -0.0274. For the same compound, the Bliss excess in assay [19] turned out to be 0.0077; in assay [20] it was 0.0015.

With `Cc1c2c(nn1C)CSCc1cc(n(C)n1)CSc1cc(c3ccccc3c1)OCCCc1c(C(=O)O)n(C)c3c-2c(Cl)ccc13` [AZD5991] + CC1(C)CCC(CN2CCN(c3ccc(C(=O)NS(=O)(=O)c4ccc(NCC5CCOCC5)c([N+](=O)[O-])c4)c(Oc4cnc5[nH]ccc5c4)c3)CC2)=C(c2ccc(Cl)cc2)C1 [Venetoclax] (first compound max 1 µM, 7x7, partner max 1 µM), the Bliss excess in assay [1] was -0.0696; in assay [2] it was -0.0218; in [3], -0.0306; in assay [4], -0.0076; in [5], -0.0063; in [6], -0.0326. Further, the Bliss excess is 0.005 in assay [7]; -0.0426 in assay [8]; 0.0428 in [9]; 0.0034 in [10]; -0.043 in [11]; -0.0279 in assay [12]. Besides, the Bliss excess in assay [13] was 0.0147; in assay [14] it was -0.0296; in assay [15] it was 0.0963; in assay [16], 0.174; in assay [17], -0.0387; in assay [18] it was -0.0333. Further, the Bliss excess in assay [19] is 0.0519; in assay [20], -0.0471.

On to `Cc1c2c(nn1C)CSCc1cc(n(C)n1)CSc1cc(c3ccccc3c1)OCCCc1c(C(=O)O)n(C)c3c-2c(Cl)ccc13` [AZD5991] + CCN(CCO)CCCOc1ccc2c(Nc3cc(CC(=O)Nc4cccc(F)c4)[nH]n3)ncnc2c1 [AZD2811] (first compound max 1 µM, 7x7, partner max 1 µM), for which the Bliss excess in assay [1] was -0.0543; in assay [2], 0.0523; in assay [3] it was 0.0441; in assay [4] it was 0.068; in assay [5], 0.0227; in assay [6], -0.0053. Moreover, the Bliss excess in assay [7] is 0.0561; in assay [8] it was 0.0156; in assay [9], 0.043; in assay [10], 0.0186; in assay [11], -0.0986; in assay [12], 0.0314. The Bliss excess is 0.05 in assay [13]; -0.0011 in assay [14]; -0.0061 in assay [15]; 0.0228 in [16]; 0.0307 in assay [17]; 0.0348 in [18]. In addition, the values for the Bliss excess in assay [19] and in [20] were 0.0523 and -0.0486, respectively.

For the compound `Cc1c2c(nn1C)CSCc1cc(n(C)n1)CSc1cc(c3ccccc3c1)OCCCc1c(C(=O)O)n(C)c3c-2c(Cl)ccc13` [AZD5991] + C[C@@H]1COCCN1C2=NC(=NC(=C2)C3(CC3)[S@](=N)(=O)C)C4=C5C=CNC5=NC=C4 [AZD6738] (first compound max 1 µM, 7x7, partner max 10 µM), the Bliss excess in assay [1] was 0.046; in assay [2], 0.0509; in [3], 0.0187; in [4], 0.0061; in assay [5] it was 0.0291; in assay [6] it was 0.0449. Moreover, the Bliss excess in assay [7] was 0.0039; in assay [8], 0.0235; in [9] it was -0.0078; in assay [10], 0.0127; in [11] it was -0.0407; in assay [12] it was 0.0367. In addition, the Bliss excess in assay [13] was 0.0531; in assay [14], -0.0233; in [15] it was -0.0197; in [16], 0.0536; in [17], -0.0078; in assay [18], 0.0272. In addition, the values for the Bliss excess in assay [19] and in [20] were -0.0625 and 0.0425, respectively.

On to `Cc1c2c(nn1C)CSCc1cc(n(C)n1)CSc1cc(c3ccccc3c1)OCCCc1c(C(=O)O)n(C)c3c-2c(Cl)ccc13` [AZD5991] + C[C@@H](Nc1cc(F)cc(F)c1)c1cc(C(=O)N(C)C)cc2c(=O)cc(N3CCOCC3)oc12 [AZD8186] (first compound max 1 µM, 7x7, partner max 3 µM), for which the Bliss excess in assay [1] is 0.0095; in [2] it was 0.0033; in assay [3], -0.0006; in assay [4], -0.0343; in assay [5] it was -0.0124; in assay [6], -0.0611. Moreover, the Bliss excess was 0.0622 in assay [7]; -0.0449 in assay [8]; -0.0328 in assay [9]; -0.0213 in assay [10]; -0.0864 in [11]; -0.0099 in [12]. Further, the Bliss excess in [13] is 0.0051; in [14], -0.0067; in assay [15] it was -0.0092; in assay [16] it was -0.0143; in assay [17] it was -0.0253; in assay [18], 0.0095. For the same compound, the Bliss excess in assay [19] was -0.0476; in assay [20], 0.0441.

For `Cc1c2c(nn1C)CSCc1cc(n(C)n1)CSc1cc(c3ccccc3c1)OCCCc1c(C(=O)O)n(C)c3c-2c(Cl)ccc13` [AZD5991] + Cn1cnc2c(F)c(Nc3ccc(Br)cc3Cl)c(C(=O)NOCCO)cc21 [Selumetinib] (first compound max 1 µM, 7x7, partner max 3 µM), the Bliss excess was 0.0143 in assay [1]; 0 in assay [2]; -0.0217 in [3]; 0.03 in assay [4]; 0.0086 in [5]; 0.0372 in assay [6]. Also, the Bliss excess in assay [7] is 0.01; in assay [8], -0.0171; in assay [9] it was 0.018; in assay [10], -0.042; in [11], -0.0263; in assay [12], -0.0205. The Bliss excess is 0.0678 in [13]; -0.0162 in [14]; 0.0021 in assay [15]; -0.009 in assay [16]; 0.0293 in [17]; -0.0377 in assay [18]. The Bliss excess in [19] was found to be 0.0099; in assay [20], 0.0633.
